According to ChEMBL document CHEMBL1141278, “Naamidines H and I, cytotoxic imidazole alkaloids from the Indonesian marine sponge Leucetta chagosensis” (J Nat Prod, 2007):
Converted amounts (≈) assume the structure as drawn. The source made the active and inactive calls. No cut-off for these calls is given here.

Legend:
Escherichia coli = assay: Antimicrobial activity against Escherichia coli at 50 ug/6 mm disk by paper disk method; type: functional, organism-based
HeLa = assay: Cytotoxicity against human HeLa cells by MTT assay; type: functional, cell-based

SMILES | Activity (Escherichia coli) | IC50 (HeLa)
COc1ccc(Cc2[nH]/c(=N\C3=NC(=O)N(C)C3=O)n(C)c2Cc2cc(OC)c(O)c(OC)c2)cc1 [NAAMIDINE H] | inactive | 5.6 µg/mL (≈ 11.3 µM)
C/N=C1N=C(/N=c2\[nH]c(Cc3ccc(OC)cc3)c(Cc3cc(OC)c(O)c(OC)c3)n2C)C(=O)N\1C [NAAMIDINE I] | inactive | 15 µg/mL (≈ 29.6 µM)
